Measurements from patent publication US20050250835A1, “Novel tumor-selective chemotherapeutic agents” (priority 2004, published 2005).
Like-named read-outs stand apart in the source and are kept apart here.

Tests used:
colon 38 adenocarcinoma = test: Colon 38 adenocarcinoma in mice; assay type: in vivo, BDF1 mice
JC breast adenocarcinoma = JC breast adenocarcinoma in mice; assay type: in vivo, Balb/c mice
Protocol: (§1) JC is an epithelial-like cell line established in 1983 from a spontaneous primary adenocarcinoma along the milk line (Capone et al., Cancer Immuno. Immunother. 1987, 25, 93-9). It produces tumors with papillary adenocarcinoma morphology in BALB/c mice. […] At the lowest dose of 0.16 mg/kg, (+)-YW-391 (LCK: 1.5) killed 10-times more tumor cells than Dox at 8 mg/kg (LCK: 0.78). (+)-YW-391 has the potential to be a powerful new treatment for human breast cancer.

[1] = tested on: SKOV-3 human ovarian cancer; test: SKOV-3 human ovarian cancer xenograft; assay type: in vivo, CD1 nude mice
Protocol: Ovarian cancer is one of the most difficult to treat human cancers, and very few drugs are effective. YW-391 had significant activity in SKOV-3 human ovarian cancer xenograft (FIG. 8 and Table 9). […] [table] treated animals. YW-391 and doxorubicin were administered iv., and paclitaxel was administered ip. Equivalents

Lewis lung carcinoma = Lewis lung carcinoma in mice
L1210 leukemia = L1210 leukemia tumor model in mice
Protocol: The compounds were tested in male BDF1 mice (18-22 g, 6 mice/group) bearing L1210 leukemia cells. […] Diluted ascitic fluid (0.1 mL) containing 10^5 leukemia cells were inoculated, i.p. in mice on day 0.

L1210 leukemia cells = test: Anticancer activity in vitro, 3H-thymidine incorporation; assay type: cell-based, murine; conditions: Mus musculus, 48-h proliferation assay, 3H-thymidine uptake, mean of two experiments
Protocol: The antitumor activity of the compounds was evaluated in vitro against L1210 leukemia and human SKOV-3 ovarian cancer cells (Table 4). L1210 leukemia cells and SKOV-3 (2.5×10^4 cells/well) in RPMI-1640 medium supplemented with 10% FCS medium were seeded in a 96-well plate. Drugs (10 uL) at increasing concentrations were added to each well, and the total volume was adjusted to 0.1 mL/well using the same medium. For L1210 leukemia cells, the plate was incubated for 24 h at 37° C. followed by addition of 10 uL of ^3H-thymidine (20 uCi/mL). […] The plate was incubated for another 24 h. The cells were harvested, and radioactivity was counted using the Packard Matrix 96 beta counter. The results were expressed as the minimal concentration that inhibits ^3H-thymidine incorporation by 50% (IC50). Percent growth inhibition was calculated as follows: [(total cpm−experimental cpm)/total cpm]×100.

various tumors = conditions: cited from earlier work
various cancer cells = various cancer cells in vitro, 1 h exposure (Ghielmini et al. 1997); cited from earlier work
[2] = one patient with liver cancer, 40 microg/m^2, one cycle (days 1-5); cited from earlier work
HSA = HSA (Homo sapiens, UniProt P02768); conditions: exogenously added HSA; cited from earlier work
Chain of HSA (P02768 25-609): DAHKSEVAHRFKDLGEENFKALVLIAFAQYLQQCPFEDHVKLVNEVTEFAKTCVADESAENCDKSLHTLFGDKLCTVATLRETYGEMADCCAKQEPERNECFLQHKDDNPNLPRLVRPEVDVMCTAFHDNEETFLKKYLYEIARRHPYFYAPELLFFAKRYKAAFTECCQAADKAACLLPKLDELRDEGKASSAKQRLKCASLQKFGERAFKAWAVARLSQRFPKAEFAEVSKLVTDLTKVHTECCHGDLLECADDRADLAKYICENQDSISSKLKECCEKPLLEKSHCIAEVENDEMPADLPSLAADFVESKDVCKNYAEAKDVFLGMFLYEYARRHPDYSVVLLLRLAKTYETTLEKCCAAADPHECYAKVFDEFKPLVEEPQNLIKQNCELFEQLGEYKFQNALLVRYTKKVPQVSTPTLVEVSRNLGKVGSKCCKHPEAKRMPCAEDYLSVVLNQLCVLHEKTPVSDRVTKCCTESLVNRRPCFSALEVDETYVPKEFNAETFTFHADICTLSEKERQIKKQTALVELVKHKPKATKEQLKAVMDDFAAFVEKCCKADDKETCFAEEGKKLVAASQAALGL

endogenous albumin = biological target: T1, endogenous albumin (Homo sapiens, UniProt P02768); conditions: human blood plasma; cited from earlier work
T1 construct: selectivity of Dox-MH for endogenous albumin, Dox-MH was incubated with human blood plasma; from tissue; host or cells: human blood plasma
T1 sequence (P02768 25-609): as above

[3] = tested on: MDA-MB 435 human breast cancer; conditions: cited from earlier work
[4] = tested on: mouse renal RENCA, human breast cancers MDA-MB 435 and MCF-7; conditions: three animal tumor models; cited from earlier work
[5] = JC breast adenocarcinoma in mice; assay type: in vivo, Balb/c mice; conditions: BALB/c, mouse, in vivo, intravenous, 8 mg/kg; mice bearing JC
Protocol: as §1

[6] = 0.2 mg/kg i.v. on days 1, 5, 12
[7] = 3.0 mg/kg i.v. on days 1, 5, 12

For O=C(CCCCCN1C(=O)C=CC1=O)Oc1cc2c(c3ccccc13)[C@H](CCl)CN2C(=O)c1cc2cc(NC(=O)c3cc4cc(F)ccc4[nH]3)ccc2[nH]1 [(+)-YW-391], the “tumor cells killed relative to 5-FU at 70 mg/kg” value (colon 38 adenocarcinoma; 0.15 mg/kg (LCK 2.3) versus 5-FU 70 mg/kg (LCK 1.1)) was 10 times, the “% Maximum weight loss” value (colon 38 adenocarcinoma; 0.3 mg/kg q4d × 2 i.v.) was −25% and the “tumor cells killed relative to Dox at 8 mg/kg” value (JC breast adenocarcinoma; 0.16 mg/kg (LCK 1.5) versus Dox 8 mg/kg (LCK 0.78)) was 10 times. The TGI (JC breast adenocarcinoma; at MTD, dose not given) was 98%, the “% Maximum weight loss” value ([1]; 0.13 mg/kg iv. on days 15, 24, 33) was −3% and the “% Maximum weight loss” value (Lewis lung carcinoma; [6]) was −17%. The “Log10 cell kill (LCK)” value (Lewis lung carcinoma; [6]) was 0.75, the TGIs (Lewis lung carcinoma; no dose given) was 98% and the “% ILS” value (L1210 leukemia; 0.05 mg/kg i.v. on day 1) was 40%. For the same compound, the “% ILS” value (L1210 leukemia; 0.1 mg/kg i.v. on day 1) was 51%.
Work on O=C(CCCCCN1C(=O)C=CC1=O)Oc1cc2c(c3ccccc13)[C@H](CCl)CN2C(=O)c1cc2cc(NC(=O)c3cc4ccccc4o3)ccc2[nH]1 [(+)-YW-392] yielded an IC50 (L1210 leukemia cells) of 31 nM.
For Cc1c[nH]c2c1[C@@]13C[C@@H]1CN(C(=O)c1cc4cc(NC(=O)c5cc6ccccc6o5)ccc4[nH]1)C3=CC2=O [Adozelesin, adozelesin], the “antitumor activity in vivo” value (various tumors; L1210 leukemia, B16 melanoma, M5076 sarcoma, colon 38, colon CX-1, lung LX-1, pancreas 02, ovarian 2780 in mice (Li et al. 1991)) is given as “very active”.
In the case of Cc1c[nH]c2c(O)cc3c(c12)[C@H](CCl)CN3C(=O)c1cc2cc(NC(=O)Nc3ccc4[nH]c(C(=O)N5C[C@@H](CCl)c6c5cc(O)c5[nH]cc(C)c65)cc4c3)ccc2[nH]1 [Bizelesin, bizelesin], the “antitumor activity in vivo” value (various tumors; P388, L1210, B16, UACC-62, LOX IMVI, SK-MEL-3, CAKI-1, LX-1, Lewis lung, HT-29, colon 38, pancreas 02, MCF7, MX-1 (Carter et al. 1996)) is given as “effective”.
For CCN(CC)c1ccc2cc(C(=O)Nc3ccc4[nH]c(C(=O)N5C[C@@H](CCl)c6c5cc(OC(=O)Nc5ccccc5)c5[nH]cc(C)c65)cc4c3)oc2c1 [Carzelesin, carzelesin], the “antitumor activity in vivo” value (various tumors; several colon adenocarcinomas and pediatric rhabdomyosarcomas (Houghton et al. 1995)) is given as “effective”, the “average IC70 value” (various cancer cells) is given as 0.23 ng/mL and the “duration of partial remission” value [2] is given as 8 months. For the same compound, the “regression of primary liver cancer” value [2] was 50%.
With N.N.[Cl][Pt][Cl] [Cisplatin, cisplatin] the “% Maximum weight loss” value (Lewis lung carcinoma; [7]) was −13%, the “% Tumor growth inhibition” value (Lewis lung carcinoma; [7]) was 74% and the “Log10 cell kill (LCK)” value (Lewis lung carcinoma; [7]) was 0.45.
In the case of COc1cccc2c1C(=O)c1c(O)c3c(c(O)c1C2=O)C[C@@](O)(/C(CO)=N/NC(=O)CCCCCN1C(=O)C=CC1=O)C[C@@H]3O[C@H]1C[C@H](N)[C@H](O)[C@H](C)O1 [Dox-MH], the “time by which all of the Dox-MH had reacted” value (HSA) is given as no more than 90 min, the “time within which majority of the Dox-MH reacted with HSA” value (HSA) is given as no more than 5 min and the “time by which all of the Dox-MH had reacted” value (endogenous albumin) is given as no more than 90 min. For the same compound, the body weight change ([3]; after 24 days of drug administration) was “did not produce an overall change in body weight”, the antitumor response ([3]; optimal dose 3×39.3 umol/kg (3×23 mg/kg)) was “complete remissions” and the “antitumor efficacy and toxicity versus free doxorubicin” value [4] was “distinctly superior to free doxorubicin”.
In the case of COc1cccc2c1C(=O)c1c(O)c3c(c(O)c1C2=O)C[C@@](O)(C(=O)CO)C[C@@H]3O[C@H]1C[C@H](N)[C@H](O)[C@H](C)O1 [Doxorubicin, doxorubicin], the MTD [5] was 8 mg/kg, the “% Maximum weight loss” value (JC breast adenocarcinoma; 8.0 mg/kg q4d × 3 i.v.) was −25% and the “% Tumor growth inhibition” value (JC breast adenocarcinoma; 8.0 mg/kg q4d × 3 i.v.) was 82%. For the same compound, the “Log10 cell kill (LCK)” value (JC breast adenocarcinoma; 8.0 mg/kg q4d × 3 i.v.) was 0.78, the “% Maximum weight loss” value ([1]; 5 mg/kg iv. on days 15, 24, 33) was −4% and the “% Tumor growth inhibition” value ([1]; 5 mg/kg iv. on days 15, 24, 33) was 39%. The antitumor response ([3]; free Dox) was “modest antitumor activity”, the body weight loss ([3]; treatment with free Dox) was “about 10%” and the “% ILS” value (L1210 leukemia; 10.0 mg/kg i.v. on day 1) was 85%.
In the case of COC(=O)c1c(C)[nH]c2c(OC(=O)N3CCN(C)CC3)cc3c(c12)[C@H](CBr)CN3C(=O)c1cc2cc(OC)c(OC)c(OC)c2[nH]1 [KW-2189], the “antitumor activity in vivo” value (various tumors; P388, L1210, B16, colon 26, colon 38, LC-6, ST-4, ST-40, LI-7, PAN-02, MX-1 (Kobayashi et al. 1994)) is given as “active”.
For CC(=O)O[C@H]1C(=O)[C@@]2(C)[C@H]([C@H](OC(=O)c3ccccc3)[C@]3(O)C[C@H](OC(=O)[C@H](O)[C@@H](NC(=O)c4ccccc4)c4ccccc4)C(C)=C1C3(C)C)[C@]1(OC(C)=O)CO[C@@H]1C[C@@H]2O [Paclitaxel, paclitaxel], the “% Maximum weight loss” value ([1]; 25 mg/kg ip. on days 15, 24, 33) was −1%.
